For one experiment, the target named is PD-1/PD-L1 (Homo sapiens (Human), UniProt Q9NZQ7). Nature of the experiment: PD-1/PD-L1 Homogenous Time-Resolved Fluorescence (HTRF) binding assay. The following applies: PD-1-Ig / PD-L1-His HTRF; value given as number; read-out: Range or IC50. An excerpt: The ability of the compounds of formula (I) to bind to PD-L1 was investigated using a PD-1/PD-L1 Homogenous Time-Resolved Fluorescence (HTRF) binding assay.
PD-1/PD-L1, sequence (Q9NZQ7 other isoform, or with tags, fused parts or gaps): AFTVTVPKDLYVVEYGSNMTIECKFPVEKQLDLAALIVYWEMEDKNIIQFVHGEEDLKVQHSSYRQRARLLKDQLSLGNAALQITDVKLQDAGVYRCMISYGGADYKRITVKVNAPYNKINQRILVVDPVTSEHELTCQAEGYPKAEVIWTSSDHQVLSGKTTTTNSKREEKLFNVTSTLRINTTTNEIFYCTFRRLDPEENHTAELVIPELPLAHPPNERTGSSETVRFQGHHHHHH
Homogenous Time-Resolved Fluorescence (HTRF) binding assay.
The interaction of PD-1 and PD-L1 can be assessed using soluble, purified preparations of the extracellular domains of the two proteins. The PD-1 and PD-L1 protein extracellular domains were expressed as fusion proteins with detection tags, for PD-1, the tag was the Fc portion of Immunoglobulin (PD-1-Ig) and for PD-L1 it was the 6 histidine motif (PD-L1-His). All binding studies were performed in an HTRF assay buffer consisting of dPBS supplemented with 0.1% […] bovine serum albumin and 0.05% (v/v) Tween-20. For the h/PD-L1-His binding assay, inhibitors were pre-incubated with PD-L1-His (10 nM final) for 15 m in 4 μl of assay buffer, followed by addition of PD-1-Ig (20 nM final) in 1 μl of assay buffer and further incubation for 15 m. HTRF detection was achieved using europium crypate-labeled anti-Ig (1 nM final) and allophycocyanin (APC) labeled anti-His (20 nM final). Antibodies were diluted in HTRF detection buffer and 5 μl was dispensed on top of the binding reaction. The reaction mixture was allowed to equilibrate for 30 minutes and the resulting signal (665 nm/620 nm ratio) was obtained using an EnVision fluorometer. Additional binding assays were established between the human proteins PD-1-Ig/PD-L2-His (20 & 5 nM, respectively) and CD8O-His/PD-L1-Ig (100 & 10 nM, respectively).
Recombinant Proteins: Human PD-1 (25-167) with a C-terminal human Fc domain of immunoglobulin G (Ig) epitope tag [hPD-1 (25-167)-3S-IG] and human PD-L1 (18-239) with a C-terminal His epitope tag [hPD-L1(18-239)-TVMV-His] were expressed in HEK293T cells and purified sequentially by ProteinA affinity chromatography and size exclusion chromatography. Human PD-L2-His and CD80-His was obtained through commercial sources.
The table below lists the IC50 values for representative examples of this disclosure measured in the PD-1/PD-L1 Homogenous Time-Resolved Fluorescence (HTRF) binding assay. Ranges are as follows: A=0.18 nM-0.99 nM; B=1.0 nM-5.0 nM; C=5.01 nM-10.1 nM; D=10.2 nM-200 nM; E=201 nM→10 uM
In general terms: TR-FRET usually uses a lanthanide donor and a delayed reading to cut background.
The term IC50 denotes the concentration needed to halve the response being measured. In the case of `Cc1c(COc2cc(OCc3cncc(C#N)c3)c(CN3CCCC[C@H]3C(=O)O)cc2Cl)cccc1-c1ccc2ncc(C3=CCCNC3)nc2c1` [Example 1027, (S)-1-(5-Chloro-2-((5-cyanopyridin-3-yl)methoxy)-4-((2-methyl-3-(3-(1,2,5,6-tetra-hydropyridin-3-yl)quinoxalin-6-yl)benzyl)oxy)benzyl)piperidine-2-carboxylic Acid], the IC50 is 1.7 nM.

With `Cc1c(COc2cc(OCc3cncc(C#N)c3)c(CN(C)C(CO)CO)cc2Cl)cccc1-c1ccc2oc(N3C[C@@H]4C[C@H]3CN4C)nc2c1` [Example 2001], the IC50 was 3.8 nM.

The experiment is the same for the next values; noted with them: PD-1-Ig / PD-L1-His HTRF; value given as range class; read-out: Range or IC50.
In the case of `Cc1c(COc2cc(OCc3cncc(C#N)c3)c(CN3CCCC[C@H]3C(=O)O)cc2Cl)cccc1-c1ccc2oc(C3CCN(CC(=O)O)CC3)nc2c1` [Example 1016, (S)-1-(4-((3-(2-(1-(carboxymethyl)piperidin-4-yl)benzo[d]oxazol-5-yl)-2-methylbenzyl)oxy)-5-chloro-2-((5-cyanopyridin-3-yl)methoxy)benzyl)piperidine-2-carboxylic Acid], the IC50 was 0.18 to 0.99 nM.

For `Cc1c(COc2cc(OCc3cncc(C#N)c3)c(CN3CCCC[C@H]3C(=O)O)cc2Cl)cccc1-c1ccc2oc(C3CCOCC3)nc2c1` [Example 1017, (S)-1-(5-chloro-2-((5-cyanopyridin-3-yl)methoxy)-4-((2-methyl-3-(2-(tetrahydro-2H-pyran-4-yl)benzo[d]oxazol-5-yl)benzyl)oxy)benzyl)piperidine-2-carboxylic Acid], the IC50 lay in the range of 0.18 to 0.99 nM.

As for `Cc1c(COc2cc(OCc3cncc(C#N)c3)c(CN3CCCC[C@H]3C(=O)O)cc2Cl)cccc1-c1ccc2oc(C3CC4CCC(C3)O4)nc2c1` (stereo partly drawn) [Example 1018, (2S)-1-(4-((3-(2-(8-oxabicyclo[3.2.1]octan-3-yl)benzo[d]oxazol-5-yl)-2-methylbenzyl)oxy)-5-chloro-2-((5-cyanopyridin-3-yl)methoxy)benzyl)piperidine-2-carboxylic Acid], the IC50 is 1 to 5 nM.

`Cc1c(COc2cc(OCc3cncc(C#N)c3)c(C=O)cc2Cl)cccc1-c1ccc2oc(C3CCN(C)CC3)nc2c1` [Example 1019, 5-((4-chloro-2-formyl-5-((2-methyl-3-(2-(1-methylpiperidin-4-yl)benzo[d]oxazol-5-yl)benzyl)oxy)phenoxy)methyl)nicotinonitrile]: the IC50 is 5.01 to 10.1 nM.

As to `Cc1c(COc2cc(OCc3cncc(C#N)c3)c(CN[C@](C)(CO)C(=O)O)cc2Cl)cccc1-c1ccc2oc(C3CCN(C)CC3)nc2c1` [Example 1020, (R)-2-((5-chloro-2-((5-cyanopyridin-3-yl)methoxy)-4-((2-methyl-3-(2-(1-methylpiperidin-4-yl)benzo[d]oxazol-5-yl)benzyl)oxy)benzyl)amino)-3-hydroxy-2-methylpropanoic Acid], the IC50 was in the range of 0.18 to 0.99 nM.

Regarding `Cc1c(COc2cc(OCc3cncc(C#N)c3)c(CO)cc2Cl)cccc1-c1ccc2oc(C3CCN(C)CC3)nc2c1` [Example 1021, 5-((4-chloro-2-(hydroxymethyl)-5-((2-methyl-3-(2-(1-methylpiperidin-4-yl)benzo[d]oxazol-5-yl)benzyl)oxy)phenoxy)methyl)nicotinonitrile], the IC50 lay in the range of 5.01 to 10.1 nM.

In the case of `Cc1c(COc2cc(OCc3cncc(C#N)c3)c(CN3CCCC[C@H]3C(=O)O)cc2Cl)cccc1-c1ccc2oc(C3CCN(c4ccccc4)CC3)nc2c1` [Example 1022, (S)-1-(5-chloro-2-((5-cyanopyridin-3-yl)methoxy)-4-((2-methyl-3-(2-(1-phenylpiperidin-4-yl)benzo[d]oxazol-5-yl)benzyl)oxy)benzyl)piperidine-2-carboxylic Acid], the IC50 lay in the range of 10.2 to 200 nM.

As for `COc1cc(OCc2cccc(-c3ccc4oc(C5CCN(c6ccccc6)CC5)nc4c3)c2C)c(Cl)cc1CN1CCCC[C@H]1C(=O)O` [Example 1023, (S)-1-(5-chloro-2-methoxy-4-((2-methyl-3-(2-(1-phenylpiperidin-4-yl)benzo[d]oxazol-5-yl)benzyl)oxy)benzyl)piperidine-2-carboxylic Acid], the IC50 was in the range of 201 to 10000 nM.

With `COC(=O)C1CCC(c2nc3cc(-c4cccc(COc5cc(OCc6cncc(C#N)c6)c(CN6CCCC[C@H]6C(=O)O)cc5Cl)c4C)ccc3o2)CC1` (stereo partly drawn) [Example 1024, (S)-1-(5-chloro-2-((5-cyanopyridin-3-yl)methoxy)-4-((3-(2-(4-(methoxycarbonyl)cyclohexyl)benzo[d]oxazol-5-yl)-2-methylbenzyl)oxy)benzyl)piperidine-2-carboxylic acid], the IC50 lay within 1 to 5 nM.

As to `Cc1c(COc2cc(OCc3cncc(C#N)c3)c(CN3CCCC[C@H]3C(=O)O)cc2Cl)cccc1-c1ccc2ncc(C3=CC4CCC(C3)N4C(=O)OC(C)(C)C)nc2c1` (stereo partly shown) [Example 1028], the IC50 lay within 201 to 10000 nM.

With `Cc1c(COc2cc(OCc3cncc(C#N)c3)c(CN3CCCC[C@H]3C(=O)O)cc2Cl)cccc1-c1ccc2ncc(C3=CC4CCC(C3)N4)nc2c1` (stereo partly drawn) [Example 1029, (2S)-1-(4-((3-(3-(8-Azabicyclo[3.2.1]oct-2-en-3-yl)quinoxalin-6-yl)-2-methylbenzyl)-oxy)-5-chloro-2-((5-cyanopyridin-3-yl)methoxy)benzyl)piperidine-2-carboxylic acid], the IC50 fell in the range of 1 to 5 nM.

Turning to `Cc1c(COc2cc(OCc3cncc(C#N)c3)c(CN3CCCC[C@H]3C(=O)O)cc2Cl)cccc1-c1ccc2ncc(C3=CCNCC3)nc2c1` [Example 1030, (S)-1-(5-chloro-2-((5-cyanopyridin-3-yl)methoxy)-4-((2-methyl-3-(3-(1,2,3,6-tetrahydropyridin-4-yl)quinoxalin-6-yl)benzyl)oxy)benzyl)piperidine-2-carboxylic Acid], the IC50 is 0.18 to 0.99 nM.

Take `Cc1c(COc2cc(OCc3cncc(C#N)c3)c(CN3CCCC[C@H]3C(=O)O)cc2Cl)cccc1-c1ccc2ncc(N3CCN(C)CC3)nc2c1` [Example 1031, (S)-1-(5-chloro-2-((5-cyanopyridin-3-yl)methoxy)-4-((2-methyl-3-(3-(4-methylpiperazin-1-yl)quinoxalin-6-yl)benzyl)oxy)benzyl)piperidine-2-carboxylic Acid]: the IC50 lay in the range of 5.01 to 10.1 nM.

With `Cc1c(COc2cc(OCc3cncc(C#N)c3)c(CN3CCCC[C@H]3C(=O)O)cc2Cl)cccc1-c1ccc2oc(N3C[C@@H]4C[C@H]3CN4C)nc2c1` [Example 2002, (S)-1-(5-chloro-2-((5-cyanopyridin-3-yl)methoxy)-4-((2-methyl-3-(2-((1S,4S)-5-methyl-2,5-diazabicyclo[2.2.1]heptan-2-yl)benzo[d]oxazol-5-yl)benzyl)oxy)benzyl)piperidine-2-carboxylic Acid], the IC50 was 5.01 to 10.1 nM.

In the case of `Cc1c(COc2cc(OCc3cncc(C#N)c3)c(CN3CCCC[C@H]3C(=O)O)cc2Cl)cccc1-c1ccc2oc(N3CCN(C)CC3)nc2c1` [Example 2007, (S)-1-(5-chloro-2-((5-cyanopyridin-3-yl)methoxy)-4-((2-methyl-3-(2-(4-methylpiperazin-1-yl)benzo[d]oxazol-5-yl)benzyl)oxy)benzyl)piperidine-2-carboxylic Acid], the IC50 lay within 1 to 5 nM.

On to `Cc1c(COc2cc(OCc3cncc(C#N)c3)c(CNC(CO)CO)cc2Cl)cccc1-c1ccc2oc(N3CCN(C)CC3)nc2c1` [Example 2008], for which the IC50 is 1 to 5 nM.

With `Cc1c(COc2cc(OCc3cncc(C#N)c3)c(CNC(C)(CO)CO)cc2Cl)cccc1-c1ccc2oc(N3CCN(C)CC3)nc2c1` [Example 2009], the IC50 lay within 0.18 to 0.99 nM.
